The term EC50 denotes the midpoint of the concentration-response curve.

One data set relates to sGC. Description: cGMP neuronal cell-based assay. As to conditions: rat primary hippocampal neurons; 30 μM DETA-NO; 50% of high control (10 μM Compound Y); read-out: sGC-neuron Abs EC50. Here is the method:
Rat primary neurons were isolated from fetuses of 18-day pregnant Sprague-Dawley females. The fetuses were collected in Hanks' balanced salt solution (HBSS) and brains were rapidly removed. The cerebral hippocampi were isolated and mechanically fragmented. Further tissue digestion was performed with 0.25% (wt/vol) trypsin solution in HBSS without Ca2+ and Mg2+ for 15 min at 37° C. After trypsination, cells were washed and resuspended in neurobasal medium supplemented with 0.5 mM L-glutamine, 12.5 uM glutamic acid, 2% B-27 and 100 U/mL penicillin, and 100 μg/mL streptomycin. Cells were plated at a density of 4×10^4 cells/well in a poly-D-lysine coated 384-well flat clear-bottom plate (Corning Cat No 354662). Cells were incubated 6-7 days at 37° C. in a humidified chamber with 5% CO2. Media was removed and cells were washed 1× with HBSS containing Ca2+ and Mg2+, and replaced with 40 uL HBSS containing 0.5 mM IBMX, and incubated for 15 minutes at 37° C. 10 uL of a 5× stock of test compounds with diethylenetriamine NONOate (DETA-NO) was added. Final concentration of DETA-NO was 30 μM. Cells were incubated for 20 min at 37° C. Medium was removed, 50 uL of ice-cold 10% acetic acid was added, and incubated for 60 minutes at 4° C. Following centrifugation at 4° C. for 5 minutes at 1000×g to pellet cell debris, the supernatant was aspirated to a clean plate and the samples were analyzed for cGMP content. cGMP concentrations were determined from each sample using LC-MS/MS.
Data were normalized to a high control using the following equation: 100*(Sample−Low Control)/(High Control−Low Control), where the low control is the average of 15 samples treated with 1% DMSO, and the high control is the average of 15 samples treated with 10 μM of the known sGC stimulator Compound Y (depicted in Example 2). Data were fit using a 4-parameter fit (log(agonist) vs. response—variable slope) using GraphPad Prism Software v.5. n=2 for all compounds. […]

The test system of data set [1] is rats. Kind of data set: Carrageenan - paw pressure test. The format is in vivo, rat. The conditions noted are these: Compound I-2 p.o. 10 mg/kg; 120 minutes after treatment. Here is the method:
(§1) Paw Pressure Test. Static mechanical hyperalgesia is measured. This test requires the application of an increasing pressure on the hind paws between a flat surface and a blunt pointer. To evaluate the analgesic action of a compound, one hind paw of the animal was inflamed by an injection or injured by ligation, while the other hind paw was not injured or inflamed. The apparatus exerted a steadily increasing force on the hind paws. The reaction threshold was determined as the pressure (g) required to elicit paw withdrawal and/or vocalization. The animals were gently handled by the experimenter and static mechanical hyperalgesia were assessed two times for both hind paws.
Carrageenan. Induction: Three hours before assessment of the nociceptive threshold using the paw pressure test 100 μL of a 2% carrageenan suspension was injected into the plantar aspect of the right hind paw. The Paw Pressure test was then conducted as described above.
(§2) Testing: 120 minutes after treatment. N=4/model/test. Results are expressed for each group as a percentage of activity calculated from the mean value of the vehicle-treated animals and compared to naïve animals, control paw, or cut-off value, depending on the test.

The subject of data set [2] is rats. Kind of data set: Bennett model - paw pressure test. The conditions noted are these: Compound I-2 p.o. 10 mg/kg; 120 minutes after treatment. The data set is classed as in vivo, rat. Here is the method: as §1
Bennett Model. Peripheral mononeuropathy was induced by loose ligation of the sciatic nerve in anesthetized rats (Xylazine 10 mg/kg i.p., ketamine 60 mg/kg i.p.) on D−14. Briefly, the common sciatic nerve was exposed at the level of the middle of the thigh by blunt dissection through the biceps femoris. Proximal to the sciatic trifurcation, four ligatures were loosely tied around it with about 1-mm spacing. […]
Testing: 120 minutes after treatment. […] Results are expressed for each group as a percentage of activity calculated from the mean value of the vehicle-treated animals and compared to naïve animals, control paw, or cut-off value, depending on the test.

In data set [3] the test system is rats. Description: Formalin test - score. The format is in vivo, rat. As to conditions: Compound I-2 p.o. 10 mg/kg; 120 minutes after treatment. Here is the method: Formalin Test. 2.5% formalin solution was injected by subplantar route into the right hind paw. Scoring of pain behavior was performed in rats for 36 minutes every 3 minutes according to the following scores:
0=normal behavior of the injected hind limb to support the body
1=slight touching of the injected paw on the floor to lightly support or not support the body
2=total withdrawal of the injected paw
3=licking, biting or shaking of the injected paw.
as §2

Data set [4] can be described thus: Rat cerebrospinal fluid (CSF) pharmacokinetic properties. The conditions noted are these: male, Sprague-Dawley; for concentration at 1 h: CSF, PO 10 mg/kg in PEG400, 1 h post-dosing, read-out: CSF Conc (nM @ 1 h); for Kp uu at 1 h: PO 10 mg/kg, unbound CSF / unbound plasma. The format is in vivo. Here is the method:
PK in rats was determined following oral dosing. For the oral (PO) experiments, a group of 6 male Sprague-Dawley rats with an indwelling catheter placed in the cisterna magna were used. The PO group was dosed with 3 or 10 mg/kg of a compound formulated as a solution in PEG400. PO doses were administered by oral gavage and delivered to the stomach using a syringe and gavage tube. Following oral dosage administration, the gavage tube was flushed with approximately 0.5 mL of water to ensure complete delivery of the full dose.
Plasma and CSF samples were collected as follows: samples of CSF and blood were collected at 1 hour and 2 hours post-dosing. CSF samples (0.05 mL) were collected through the intracisternal catheter. Blood samples (0.25 mL) were collected through retro-orbital sampling. These samples were kept on ice until processed for plasma. Blood samples were centrifuged at 3200 rpm for 5 minutes at approximately 5° C. within 1 hour of collection. Plasma was directly transferred to a 96-well plate tube (0.125 mL). Plug caps were placed on the tubes and the tubes frozen at approximately −70° C. and stored until analysis.
Plasma was collected and analyzed for the presence of compound.
The compound in question and the internal standard were extracted from plasma and CSF by precipitation. Samples were analyzed using liquid chromatography (LC) with tandem mass spectrometric detection (MS/MS) using electrospray ionization. The standard curve range was from 1 to 1000 ng/mL.
Kp,uu is defined as the concentration ratio of unbound drug in CSF to unbound drug in plasma. Unbound drug in plasma (or free plasma concentration) is calculated by multiplying the total plasma concentration by the unbound fraction as determined by plasma protein binding. The CSF concentration is then divided by the free plasma concentration to determine the Kp,uu. (See e.g., Di et al., J. Med. Chem., 56, 2-12 (2013)).

For the next data set, the system named is male Long Evans rats. Description: Novel Object Recognition (NOR) test, MK-801-induced memory deficit. The format is in vivo, rat.
[5] abbreviates: I-2 0.1 mg/kg, compared to Vehicle/MK-801 group.

On to `Fc1ccccc1Cn1nc(-c2nc(C(F)(F)F)n[nH]2)c2cccnc21` [Compound I-2], for which the EC50 in the data set with sGC is ≤ 100 nM. Moreover, in the data set on rats [1], the “% of activity vs. vehicle, carrageenan paw pressure test” value was 75%. The “% of activity vs. vehicle, Bennett model paw pressure test” value with rats [2] was determined as 65%. In the data set with rats [3], the “% of activity vs. vehicle, formalin test score (early phase)” value turned out to be 61% and the “% of activity vs. vehicle, formalin test score (late phase)” value came out at 11%. In addition, in data set [4], the concentration at 1 h came out at 62.9 nM and the Kp uu at 1 h was found to be 3.16. Also, the “Recognition Index, Mean (0 to 3 minute time bin)” value (shortened to “Recognition Index, Mean”) in the data set on male Long Evans rats (I-2 0.1 mg/kg oral + MK-801 0.1 mg/kg IP) came out at 68.21%. Besides, in the data set on male Long Evans rats (setting [5]), the “Reversal of MK-801-induced memory deficits, 0-3 minute time range” value is listed as “significantly reversed” and the “Reversal of MK-801-induced memory deficits, 0-5 minute time range” value was “significantly reversed”. In the data set on male Long Evans rats (I-2 1 mg/kg oral + MK-801 0.1 mg/kg IP), the “Recognition Index, Mean” value was 63.98%. For the same molecule, the “Recognition Index, Mean” value in the data set on male Long Evans rats (I-2 10 mg/kg oral + MK-801 0.1 mg/kg IP) is listed as 61.76%.

`FC(F)(F)c1n[nH]c(-c2nc(Cc3cncnc3)c3ccccn23)n1` [Compound I-5]: the EC50 in the data set on sGC was ≤ 100 nM. In data set [4], the concentration at 1 h was determined as 446 nM and the Kp uu at 1 h came to 3.26.
